Earlier results as cited in patent US20060104952A1, “Genomic barrier to viral disease” (priority 2004, published 2006).

Test system: genes
Details: ref 10 (CoQ10 supplementation, human skeletal muscle)

Q: Which “number of genes whose expression is influenced” value does the source give for COC1=C(OC)C(=O)C(C/C=C(\C)CC/C=C(\C)CC/C=C(\C)CC/C=C(\C)CC/C=C(\C)CC/C=C(\C)CC/C=C(\C)CC/C=C(\C)CC/C=C(\C)CCC=C(C)C)=C(C)C1=O [coenzyme Q10] here?
A: at least 115 genes
